In brackets after ≈: the same amount, converted by molar mass. Several values for one entry are separate records, joined by “and”; a condition that tells them apart may be missing. Identical values can stand only once. Like-named read-outs stand apart in the source and are kept apart here. Where a SMILES comes first, the peptide text is derived from it. [ ]: non-standard residue; d: D form. NMeLeu(5-OH,4R) = CN[C@@H](C[C@@H](C)CO)C(=O)O; Phe(βR-OMe) = CO[C@H](c1ccccc1)[C@H](N)C(=O)O; Trp(1-Me) = Cn1cc(C[C@H](N)C(=O)O)c2ccccc21; NMeL = CN[C@@H](CC(C)C)C(=O)O; Pra = C#CC[C@H](N)C(=O)O
Tests used:
[1] = Microsomal stability, human; type: in vitro ADME; details: for Microsomal Stability Human: clearance in microsomes
How it was run: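 Metabolic depletion in liver microsomes (0.5 mg/ml, 1 mM NADPH, 37 °C) starting from 1 µmol/l test compound, sampled at multiple times with acetonitrile quench. LC-MS/MS quantitation; half-life converted to %Qh.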

[2] = Hepatocyte stability, mice; type: in vitro ADME; details: for Hepatocyte Mice: clearance in hepatocytes
How it was run: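 Clearance expressed as % of liver blood flow (% Qh), derived from half-life via the well-stirred liver model. Compound at 1 µM final was incubated up to 6 h with ~1 million cells/mL hepatocytes in 50% serum buffer, 37 °C, pH 7.4.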

[3] = tested on: Enterococcus faecium; assay: MIC ESKAPES panel, Enterococcus faecium; type: cell-based
Description: Minimum inhibitory concentration (MIC) against ESKAPES panel of Gram positive and Gram negative pathogens (Enterococcus faecium, Staphylococcus aureus, Klebsiella pneumoniae, Acinetobacter baumannii, Pseudomonas aeruginosa, Enterobacter cloacae and Salmonella typhimurium [ESKAPES panel]) were determined at the FNDR by the standard broth dilution method [CLSI, M100]. […] Mueller Hinton broth (MHB) medium was used to grow ESKAPES panel strains. The individual cultures were added as 200 μL (inoculum of 3–7 × 10^5 cfu/ml) to the respective assay plates in each well to all columns, except the media control (200 μL of medium). […] The assay plates were incubated at 37 °C, and the results were noted on the 2nd day as turbidometric readout. The clear wells indicated inhibition of growth, while the turbid wells indicated uninhibited growth.

[4] = tested on: Mycobacterium avium; assay: microbe, parasite or virus in culture; type: cell-based
[5] = tested on: Mycobacterium fortuitum; assay: microbe, parasite or virus in culture; type: cell-based
[6] = in vivo; type: in vivo, BALB/cAnNCrl mice
Description: The in-life experimental procedures were conducted in strict compliance with German and European animal welfare legislation in an AAALAC-accredited facility. Male BALB/cAnNCrl mice (Charles River Laboratories Research Models and Services, 97633 Sulzfeld, Germany) were used. Animals were 9 weeks old at dosing with a body weight of 21.6–24.3 g. Animals were delivered free of pathogens according to FELASA recommendations with a health certificate provided by the breeder. Upon receipt, the state of health and sex was checked. Animals acclimatized for at least 5 days before the commencement of the in-life phase. During acclimation, animals were group-housed in individually ventilated cages, on birch wood granulate bedding with species-specific enrichment (nesting material, mouse igloo, gnawing wood). During experimental conduct, animals were housed in conventional cages with elevated grid floors. Grid floor was used to avoid contamination with test item material excreted via urine and feces and subsequent reuptake during fur grooming. No bedding and enrichment were provided except a cage divider, which can be used as a shelter. Animals always had unlimited access to food and water and received a pelleted, total pathogen-free maintenance diet and tap drinking water, sterilized by filter.
In case of incomplete dissolution, the formulation was filtered at 40 °C (non-pyrogenic sterile-R filter, 0.2 µm). All formulations were stirred warm until administration. Actual test item content was determined bioanalytically.
Male BALB/cAnNCrl mice (n = 3 per test item and administration route) received a bolus dose of the formulated test item(s) (1 mg/kg iv, 30 mg/kg po) at t = 0 h, and whole blood samples were collected subsequently (35 µl at 0.1 (iv) / 0.25 (po), 0.5, 1, 2, 4, 6 h; 600 µl at sacrifice after 24 h). Animals were euthanized by exsanguination in deep isoflurane anesthesia. Whole blood samples were immediately stored on ice at about 4 °C. Plasma was separated by centrifugation at approximately 10,000 × g for 5 m at +4 °C. Centrifugation of each blood sample was started within 10 m after collection. A single aliquot of at least 15 µL of plasma was prepared and immediately stored at −20 ± 5 °C.
Sample proteins were precipitated with ACN (1 + 12, v/v) containing internal standard, and supernatants analyzed by quantitative UPLC-MS/MS: Phenomenex Luna Omega C18, 2.1 × 50 mm, 1.6 µm, 40 °C, gradient between 10% - 90% ACN with 0.1% formic acid. LogD determination: Lipophilicity of the test items, expressed as chromLogD7.5, was assessed by measuring their chromatographic retention times on C18-material. The chromatographic retention versus logD7.5 values of a series of thirteen n-alkan-2-ones (2-butanone – 2-hexadecanone) served as lipophilicity calibration.

[7] = Enterococcus faecium, Gram positive, n = 3 well replicates
[8] = Enterococcus faecium, Gram-Positive Bacteria, replicates 1-3
[9] = Experiment 2, three replicate columns
[10] = Experiment 2, three replicate columns, read-out: MIC (µM) Mycobacterium avium
[11] = Mycobacterium avium, Experiment 1, read-out: MIC Mycobacterium avium
[12] = Mycobacterium avium, Experiment 2, three replicate columns, read-out: MIC (µM) Mycobacterium avium
[13] = Mycobacterium avium, Experiment 2, three replicate columns, read-out: MIC (µg/ml) Mycobacterium avium
[14] = Mycobacterium avium, mean ± SD, read-out: MIC Mycobacterium avium
[15] = Experiment 2, three replicate columns, read-out: MIC (µM) Mycobacterium fortuitum
[16] = Mycolicibacterium fortuitum, Experiment 1, read-out: MIC Mycobacterium fortuitum
[17] = Mycolicibacterium fortuitum, Experiment 2, three replicate columns, read-out: MIC (µM) Mycobacterium fortuitum
[18] = Mycolicibacterium fortuitum, Experiment 2, three replicate columns, read-out: MIC (µg/ml) Mycobacterium fortuitum
[19] = Mycolicibacterium fortuitum, mean ± SD, read-out: MIC Mycobacterium fortuitum
[20] = iv bolus, individual animals 1-3
[21] = iv bolus, mice, Mean, BLOQ <1.00 nmol/l
[22] = male, BALB/cAnNCrl, mouse, in vivo, iv, 0.0677 umol/kg, iv bolus, individual animals 1-3
[23] = male, BALB/cAnNCrl, mouse, in vivo, iv, 0.0677 umol/kg, iv bolus, mice, Mean

Structure (SMILES): C#CC[C@@H]1NC(=O)[C@H](CC(C)C)N(C)C(=O)[C@H](C(C)C)NC(=O)[C@H]([C@H](OC)c2ccccc2)NC(=O)[C@H](C)NC(=O)[C@H](C[C@@H](C)CO)N(C)C(=O)[C@H](Cc2cn(C)c3ccccc23)NC1=O [Compound 10] (cyclo(A[Phe(βR-OMe)]V[NMeL][Pra][Trp(1-Me)][NMeLeu(5-OH,4R)]))
- Microsomal Stability Human QH [1]: >88.400%
- Microsomal Stability Human [1]: > 88 %Qh
- Hepatocyte Stability Mouse QH ([2]; Mouse): 64.420%
- Hepatocyte Mice [2]: 64 %Qh
- MIC [3, 7]: > 50 µM
- MIC [3, 8]: > 45.6 µg/mL
- MIC ([3]; Gram-Positive Bacteria, replicates 1-3): >50 µM
- MIC ([4]; Experiment 1, read-out: MIC Mycobacterium avium): 12.5 µM
- MIC (µg/ml) Mycobacterium avium [4, 9]: 11.41 µg/mL (≈ 12.5 µM)
- MIC [4, 10]: 12.5 µM
- MIC [4, 11]: 11.4 µg/mL
- MIC [4, 12]: 12.5 µM
- MIC [4, 13]: 11.4 µg/mL
- MIC [4, 14]: 12.5 µM
- MIC ([5]; Experiment 1, read-out: MIC Mycobacterium fortuitum): 12.5 µM
- MIC (µg/ml) Mycobacterium fortuitum [5, 9]: 11.41 µg/mL (≈ 12.5 µM)
- MIC [5, 15]: 12.5 µM
- MIC [5, 16]: 11.4 µg/mL
- MIC [5, 17]: 12.5 µM
- MIC [5, 18]: 11.4 µg/mL
- MIC [5, 19]: 12.5 µM

Structure (SMILES): CO[C@H](c1ccccc1)[C@@H]1NC(=O)[C@H](C)NC(=O)[C@H](C[C@@H](C)CO)N(C)C(=O)[C@H](Cc2cn(Cc3cn(CCOCCn4cc(Cn5cc(C[C@@H]6NC(=O)[C@H](C(C)C)NC(=O)[C@H](CC(C)C)N(C)C(=O)[C@H](C(C)C)NC(=O)[C@H]([C@H](OC)c7ccccc7)NC(=O)[C@H](C)NC(=O)[C@H](C[C@@H](C)CO)N(C)C6=O)c6ccccc65)nn4)nn3)c3ccccc23)NC(=O)[C@H](C(C)C)NC(=O)[C@H](CC(C)C)N(C)C(=O)[C@H](C(C)C)NC1=O [Compound 6]
- Microsomal Stability Human QH [1]: 69.600%
- Microsomal Stability Human [1]: 70 %Qh
- Hepatocyte Mice [2]: 15 %Qh
- Cmax ([6]; dose-normalized, mice, 1 mg kg-1 iv bolus): 1820 nM/(nmol kg-1)
- AUC0-inf/Dose [6, 20]: 3260 h nM/(nmol kg-1) and 5150 h nM/(nmol kg-1) and 5870 h nM/(nmol kg-1)
- AUC0-t/Dose [6, 20]: 2600 h nM/(nmol kg-1) and 5020 h nM/(nmol kg-1) and 5730 h nM/(nmol kg-1)
- CL [6, 20]: 3.2 mL/min/kg and 2.8 mL/min/kg
- CL PL QH [6, 20]: 5.7% and 3.6% and 3.2%
- MRT [6, 20]: 5.1 h and 5.3 h
- Plasma concentration 0.1 h [6, 20]: 128 nM and 127 nM and 114 nM
- Plasma concentration 0.5 h [6, 20]: 47.9 nM and 51.6 nM and 58 nM
- Plasma concentration 1 h [6, 20]: 44.8 nM and 45.0 nM and 44.5 nM
- Plasma concentration 2 h [6, 20]: 32.5 nM and 36.4 nM and 39.6 nM
- Plasma concentration 4 h [6, 20]: 17.3 nM and 22.2 nM and 13.8 nM
- Vss [6, 20]: 1.0 L/kg and 0.9 L/kg
- t1/2 [6, 20]: 4.8 h and 4.9 h
- Plasma concentration 6 h ([6]; iv bolus, individual animals 1-3, BLOQ <1.00 nmol/l): 11.6 nM and 14.7 nM and 20.6 nM
- Cmax ([6]; iv bolus, individual animals 1-3, read-out: Cmax): 127 nM and 114 nM
- AUC0-inf/Dose ([6]; iv bolus, mice, Mean): 4760 h nM/(nmol kg-1)
- AUC0-t/Dose ([6]; iv bolus, mice, Mean): 4450 h nM/(nmol kg-1)
- CL PL QH ([6]; iv bolus, mice, Mean): 4.1%
- Plasma concentration 0.1 h ([6]; iv bolus, mice, Mean): 123 nM
- Plasma concentration 0.5 h ([6]; iv bolus, mice, Mean): 52.5 nM
- Plasma concentration 1 h ([6]; iv bolus, mice, Mean): 44.8 nM
- Plasma concentration 2 h ([6]; iv bolus, mice, Mean): 36.2 nM
- Plasma concentration 4 h ([6]; iv bolus, mice, Mean): 17.8 nM
- Plasma concentration 6 h [6, 21]: 15.6 nM
- Plasma concentration 24 h [6, 21]: 1.3 nM
- tmax ([6]; male, BALB/cAnNCrl, mouse, in vivo, 0.0677 umol/kg, iv bolus, individual animals 1-3): 6 min
- clearance [6, 22]: 5.1 mL/min/kg
- half-life [6, 22]: 2.7 h
- Cmax ([6]; male, BALB/cAnNCrl, mouse, in vivo, iv, 0.0677 umol/kg, iv bolus, individual animals 1-3, read-out: Cmax): 128 nM
- MRT ([6]; male, BALB/cAnNCrl, mouse, in vivo, iv, 0.0677 umol/kg, iv bolus, individual animals 1-3, read-out: MRT): 3.6 h
- Vd ([6]; male, BALB/cAnNCrl, mouse, in vivo, iv, 0.0677 umol/kg, iv bolus, individual animals 1-3, read-out: Vss): 1.1 L/kg
- clearance [6, 23]: 3.7 mL/min/kg
- half-life [6, 23]: 4.1 h
- Cmax ([6]; male, BALB/cAnNCrl, mouse, in vivo, iv, 0.0677 umol/kg, iv bolus, mice, Mean, read-out: Cmax): 123 nM
- MRT ([6]; male, BALB/cAnNCrl, mouse, in vivo, iv, 0.0677 umol/kg, iv bolus, mice, Mean, read-out: MRT): 4.7 h
- Vd ([6]; male, BALB/cAnNCrl, mouse, in vivo, iv, 0.0677 umol/kg, iv bolus, mice, Mean, read-out: Vss): 1 L/kg
- Vd ([6]; male, BALB/cAnNCrl, mouse, in vivo, iv, 1 mg/kg, mice, 1 mg kg-1 iv bolus, read-out: VSS): 0.95 L/kg
- clearance ([6]; male, BALB/cAnNCrl, mouse, in vivo, iv, 1 mg/kg, plasma clearance, mice, 1 mg kg-1 iv bolus): 3.73 mL/min/kg
- half-life ([6]; male, BALB/cAnNCrl, mouse, in vivo, iv, 1 mg/kg, plasma, mice, 1 mg kg-1 iv bolus): 3.33 h

Structure (SMILES): COc1c(N2C[C@@H]3CCCN[C@@H]3C2)c(F)cc2c(=O)c(C(=O)O)cn(C3CC3)c12 [Moxifloxacin, reference compound]
- MIC [3, 7]: 79.7 µM
- MIC [3, 8]: 79.7 µM and 32 µg/mL
- MIC (µg/ml) Mycobacterium avium [4, 9]: 1 µg/mL (≈ 2.49 µM)
- MIC [4, 10]: 2.49 µM
- MIC [4, 11]: 2.49 µM and 1 µg/mL
- MIC [4, 12]: 2.49 µM
- MIC [4, 13]: 1 µg/mL
- MIC [4, 14]: 2.5 µM
- MIC (µg/ml) Mycobacterium fortuitum [5, 9]: 0.06 µg/mL (≈ 0.149 µM)
- MIC [5, 15]: 0.15 µM
- MIC [5, 16]: 0.0747 µM and 0.03 µg/mL
- MIC [5, 17]: 0.15 µM
- MIC [5, 18]: 0.06 µg/mL
- MIC [5, 19]: 0.1 µM

— publication PMC10914731, “Homo-BacPROTAC-induced degradation of ClpC1 as a strategy against drug-resistant mycobacteria” (Nature Communications, 2024)
